Laboratory results published in patent US20230330093A1, “APPLICATION OF NITROGEN-CONTAINING SATURATED HETEROCYCLIC COMPOUND” (SHANGHAI PHARMACEUTICALS HOLDING CO., LTD., priority 2020, published 2023).
Several values for one entry are separate records, joined by “and”; a condition that tells them apart may be missing. Equal values may be shown once.

Tests used:
[1] = test system: rhesus monkeys with spontaneous chronic kidney disease; experiment: Effect on glomerular filtration rate eGFRcreat-cys, 8-week administration; assay type: in vivo, Macaca mulatta (Rhesus Macaque)
Description: CKD-EPI rating […]-G3b, glomerular filtration rate eGFR: 30 59 ml/min/1.73 m^2; or moderate to severe increase in proteinuria (A2-A3): urine albumin/creatinine ratio (UACR)>15 mg/g-350 mg/g (4-6 hour urine collection), vs. age-matched control group 3±2 mg/g. In the trial, animals were brought in three stages. […] Glomerular filtration rate […]: creatinine (Cr-P), urea nitrogen (BUN) and cystatin (CysC) were detected, and the eGFR value was obtained by calculation. It was performed once before the administration and once every two weeks after the administration. […] ELISA kit was used for NT-proBNP test. [table] Selected […] in each group: 30 59 ml/min/1.73 m^2. The changes in the glomerular filtration rate of W8 and baseline were analyzed.

[2] = test system: rhesus monkeys with spontaneous chronic kidney disease; experiment: Effect on heart function, cardiac Doppler ultrasound, 8-week administration
Description: In the trial, animals were brought in three stages.
This was performed once before administration and once after administration. UACR=MALB/Cr—U. • Blood pressure: the blood pressure was checked after anesthesia, including systolic blood pressure (SBP), diastolic blood pressure (DBP), mean blood pressure (MBP) and heart rate (HR). This was performed once before administration and once at weeks 4 and 8 respectively after administration. • Cardiac GE Doppler ultrasound: historical cardiac ultrasonography once within 1 year (selected animals), once before administration (within 30 days (D-30) of the baseline period), and once at week 8 after administration.
Anesthesia method: 15 mg/kg of ketamine hydrochloride was used for intramuscular injection anesthesia. According to the animal anesthesia state, the supplemental anesthesia will be performed after judgment by veterinarian. Each supplemental anesthesia dose was ½ of the initial dose.
Detection method: The animal was placed in the left decubitus position, and the 6S-RS probe (frequency 2.7-8.0 MHz) was used for image acquisition.
Analysis method: After the image was collected and saved, the supporting analysis workstation EchoPAC Software was used to repeatedly detect various indicators of systolic and diastolic functions in 3 consecutive cardiac cycles.
Testing indicators and ultrasonic technology: see Table 9 below.
Testing equipment: GE Vivid S5 color Doppler ultrasound diagnostic system.

SMILES: COC(=O)NCCCn1nc([C@@H](C)N(C(=O)[C@H]2CNCCO2)C2CC2)c2ccc(C)nc21.O=C(O)C[C@H](O)C(=O)O [malate of compound of Formula I]
- eGFRcreat-cys ([1]; 1 mg/kg qd (n = 5), 2 weeks, group mean): 52 ± 3 ml/min/1.73 m^2
- eGFRcreat-cys ([1]; 1 mg/kg qd (n = 5), 4 weeks): 60 ml/min/1.73 m^2 and 64 ml/min/1.73 m^2 and 55 ml/min/1.73 m^2 and 52 ml/min/1.73 m^2 and 56 ml/min/1.73 m^2
- eGFRcreat-cys ([1]; 1 mg/kg qd (n = 5), 4 weeks, group mean): 57 ± 5 ml/min/1.73 m^2
- eGFRcreat-cys ([1]; 1 mg/kg qd (n = 5), 6 weeks): 58 ml/min/1.73 m^2 and 57 ml/min/1.73 m^2 and 56 ml/min/1.73 m^2 and 53 ml/min/1.73 m^2
- eGFRcreat-cys ([1]; 1 mg/kg qd (n = 5), 6 weeks, group mean): 56 ± 2 ml/min/1.73 m^2
- eGFRcreat-cys ([1]; 1 mg/kg qd (n = 5), 8 weeks): 58 ml/min/1.73 m^2 and 59 ml/min/1.73 m^2 and 53 ml/min/1.73 m^2 and 48 ml/min/1.73 m^2 and 57 ml/min/1.73 m^2
- eGFRcreat-cys ([1]; 1 mg/kg qd (n = 5), 8 weeks, group mean): 55 ± 5 ml/min/1.73 m^2
- eGFRcreat-cys ([1]; 1 mg/kg qd (n = 5), Baseline, single animals and Mean ± SD): 51 ml/min/1.73 m^2 and 54 ml/min/1.73 m^2 and 53 ml/min/1.73 m^2 and 50 ml/min/1.73 m^2 and 52 ml/min/1.73 m^2
- eGFRcreat-cys ([1]; 1 mg/kg qd (n = 5), Baseline, single animals and Mean ± SD, group mean): 52 ± 1 ml/min/1.73 m^2
- eGFRcreat-cy, Change value ([1]; 2 mg/kg oral once a day, 2 weeks vs baseline, per animal + Mean ± SD): 5 ml/min/1.73 m^2 and −3 ml/min/1.73 m^2 (3×) and 0 ml/min/1.73 m^2
- eGFRcreat-cy, Change value ([1]; 2 mg/kg oral once a day, 2 weeks vs baseline, per animal + Mean ± SD, mean): −1 ± 3 ml/min/1.73 m^2
- eGFRcreat-cy, Change value ([1]; 2 mg/kg oral once a day, 4 weeks vs baseline, per animal + Mean ± SD): 7 ml/min/1.73 m^2 and −5 ml/min/1.73 m^2 and 1 ml/min/1.73 m^2 (2×) and 10 ml/min/1.73 m^2
- eGFRcreat-cy, Change value ([1]; 2 mg/kg oral once a day, 4 weeks vs baseline, per animal + Mean ± SD, mean): 3 ± 6 ml/min/1.73 m^2
- eGFRcreat-cy, Change value ([1]; 2 mg/kg oral once a day, 6 weeks vs baseline, per animal + Mean ± SD): 4 ml/min/1.73 m^2 and −1 ml/min/1.73 m^2 and 0 ml/min/1.73 m^2 and 5 ml/min/1.73 m^2 (2×)
- eGFRcreat-cy, Change value ([1]; 2 mg/kg oral once a day, 6 weeks vs baseline, per animal + Mean ± SD, mean): 3 ± 3 ml/min/1.73 m^2
- eGFRcreat-cy, Change value ([1]; 2 mg/kg oral once a day, 8 weeks vs baseline, per animal + Mean ± SD (p<0.05 vs placebo)): 3±3 ml/min/1.73 m^2 and 5 ml/min/1.73 m^2 and 0 ml/min/1.73 m^2 and 2 ml/min/1.73 m^2 and 6 ml/min/1.73 m^2 and 1 ml/min/1.73 m^2
- eGFRcreat-cy, Change value ([1]; 2 mg/kg oral once a day, Baseline, per animal + Mean ± SD): 0 ml/min/1.73 m^2
- eGFRcreat-cy, Change value ([1]; 2 mg/kg oral once a day, Baseline, per animal + Mean ± SD, mean): 0 ± 0 ml/min/1.73 m^2
- eGFRcreat-cys ([1]; 2 mg/kg qd (n = 5), 2 weeks): 58 ml/min/1.73 m^2 and 47 ml/min/1.73 m^2 and 46 ml/min/1.73 m^2 and 43 ml/min/1.73 m^2 and 57 ml/min/1.73 m^2
- eGFRcreat-cys ([1]; 2 mg/kg qd (n = 5), 2 weeks, group mean): 50 ± 7 ml/min/1.73 m^2
- eGFRcreat-cys ([1]; 2 mg/kg qd (n = 5), 4 weeks): 61 ml/min/1.73 m^2 and 45 ml/min/1.73 m^2 and 50 ml/min/1.73 m^2 and 56 ml/min/1.73 m^2 and 59 ml/min/1.73 m^2
- eGFRcreat-cys ([1]; 2 mg/kg qd (n = 5), 4 weeks, group mean): 54 ± 7 ml/min/1.73 m^2
- eGFRcreat-cys ([1]; 2 mg/kg qd (n = 5), 6 weeks): 58 ml/min/1.73 m^2 and 48 ml/min/1.73 m^2 and 51 ml/min/1.73 m^2 and 62 ml/min/1.73 m^2
- eGFRcreat-cys ([1]; 2 mg/kg qd (n = 5), 6 weeks, group mean): 54 ± 6 ml/min/1.73 m^2
- eGFRcreat-cys ([1]; 2 mg/kg qd (n = 5), Baseline, single animals and Mean ± SD): 54 ml/min/1.73 m^2 and 50 ml/min/1.73 m^2 and 48 ml/min/1.73 m^2 and 46 ml/min/1.73 m^2 and 58 ml/min/1.73 m^2
- eGFRcreat-cys ([1]; 2 mg/kg qd (n = 5), Baseline, single animals and Mean ± SD, group mean): 51 ± 5 ml/min/1.73 m^2
- eGFRcreat-cy, Change value ([1]; 5 mg/kg oral once a day, 2 weeks vs baseline, per animal + Mean ± SD): 4 ml/min/1.73 m^2 and 9 ml/min/1.73 m^2 and 11 ml/min/1.73 m^2 and −4 ml/min/1.73 m^2 and 1 ml/min/1.73 m^2 and 17 ml/min/1.73 m^2
- eGFRcreat-cy, Change value ([1]; 5 mg/kg oral once a day, 2 weeks vs baseline, per animal + Mean ± SD, mean): 5 ± 9 ml/min/1.73 m^2
- eGFRcreat-cy, Change value ([1]; 5 mg/kg oral once a day, 4 weeks vs baseline, per animal + Mean ± SD): −3 ml/min/1.73 m^2 and 4 ml/min/1.73 m^2 and 6 ml/min/1.73 m^2 and 2 ml/min/1.73 m^2 and 12 ml/min/1.73 m^2 and 11 ml/min/1.73 m^2
- eGFRcreat-cy, Change value ([1]; 5 mg/kg oral once a day, 4 weeks vs baseline, per animal + Mean ± SD, mean): 5 ± 6 ml/min/1.73 m^2
- eGFRcreat-cy, Change value ([1]; 5 mg/kg oral once a day, 6 weeks vs baseline, per animal + Mean ± SD): −1 ml/min/1.73 m^2 (2×) and 6 ml/min/1.73 m^2 and −2 ml/min/1.73 m^2 and 11 ml/min/1.73 m^2 (2×)
- eGFRcreat-cy, Change value ([1]; 5 mg/kg oral once a day, 6 weeks vs baseline, per animal + Mean ± SD, mean): 4 ± 6 ml/min/1.73 m^2
- eGFRcreat-cy, Change value ([1]; 5 mg/kg oral once a day, 8 weeks vs baseline, per animal + Mean ± SD (p<0.05 vs placebo)): 6±6 ml/min/1.73 m^2 and 3 ml/min/1.73 m^2 and 6 ml/min/1.73 m^2 and 4 ml/min/1.73 m^2 and 2 ml/min/1.73 m^2 and 8 ml/min/1.73 m^2 and 17 ml/min/1.73 m^2
- eGFRcreat-cy, Change value ([1]; 5 mg/kg oral once a day, Baseline, per animal + Mean ± SD): 0 ml/min/1.73 m^2
- eGFRcreat-cy, Change value ([1]; 5 mg/kg oral once a day, Baseline, per animal + Mean ± SD, mean): 0 ± 0 ml/min/1.73 m^2
- eGFRcreat-cys ([1]; 5 mg/kg qd (n = 6), 2 weeks): 51 ml/min/1.73 m^2 and 57 ml/min/1.73 m^2 and 62 ml/min/1.73 m^2 and 37 ml/min/1.73 m^2 and 54 ml/min/1.73 m^2 and 61 ml/min/1.73 m^2
- eGFRcreat-cys ([1]; 5 mg/kg qd (n = 6), 2 weeks, group mean): 54 ± 9 ml/min/1.73 m^2
- eGFRcreat-cys ([1]; 5 mg/kg qd (n = 6), 6 weeks): 53 ml/min/1.73 m^2 and 54 ml/min/1.73 m^2 and 49 ml/min/1.73 m^2 and 40 ml/min/1.73 m^2 and 64 ml/min/1.73 m^2
- eGFRcreat-cys ([1]; 5 mg/kg qd (n = 6), 6 weeks, group mean): 53 ± 8 ml/min/1.73 m^2
- eGFRcreat-cys ([1]; 5 mg/kg qd (n = 6), 8 weeks): 57 ml/min/1.73 m^2 and 53 ml/min/1.73 m^2 and 55 ml/min/1.73 m^2 and 43 ml/min/1.73 m^2 and 61 ml/min/1.73 m^2 and 60 ml/min/1.73 m^2
- eGFRcreat-cys ([1]; 5 mg/kg qd (n = 6), 8 weeks, group mean): 55 ± 7 ml/min/1.73 m^2
- eGFRcreat-cys ([1]; 5 mg/kg qd (n = 6), Baseline, single animals and Mean ± SD): 55 ml/min/1.73 m^2 and 48 ml/min/1.73 m^2 and 51 ml/min/1.73 m^2 and 41 ml/min/1.73 m^2 and 53 ml/min/1.73 m^2 and 43 ml/min/1.73 m^2
- eGFRcreat-cys ([1]; 5 mg/kg qd (n = 6), Baseline, single animals and Mean ± SD, group mean): 49 ± 5 ml/min/1.73 m^2
- glomerular filtration rate eGFRcreat-cys improvement ([1]; 2-5 mg/kg qd for 8 weeks): can be significantly improved
- E/Ea ([2]; 1 mg/kg (n = 5), 8 weeks): 10.68 and 11.36 and 8.16 and 8.95 and 10.64
- Ea ([2]; 1 mg/kg (n = 5), 8 weeks): 5.35 cm/s and 5.65 cm/s and 6.99 cm/s and 5.37 cm/s and 5.06 cm/s
- LVEF ([2]; 1 mg/kg (n = 5), 8 weeks): 63.95% and 55.81% and 54.03% and 61.01% and 49.37%
- E/Ea ([2]; 1 mg/kg (n = 5), Baseline): 10.50 and 9.53 and 9.22 and 8.68 and 10.36
- Ea ([2]; 1 mg/kg (n = 5), Baseline): 5.90 cm/s and 6.31 cm/s and 4.81 cm/s and 5.18 cm/s and 6.37 cm/s
- LVEF ([2]; 1 mg/kg (n = 5), Baseline, single animals and Mean ± SD): 65.25% and 55.89% and 54.86% and 69.87% and 47.92%
- E/Ea ([2]; 2 mg/kg (n = 5), 8 weeks): 10.63 and 6.35 and 7.84 and 9.88 and 6.22
- Ea ([2]; 2 mg/kg (n = 5), 8 weeks): 5.00 cm/s and 6.66 cm/s and 8.01 cm/s and 5.91 cm/s and 6.82 cm/s
- LVEF ([2]; 2 mg/kg (n = 5), 8 weeks): 58.54% and 67.80% and 57.13% and 58.03% and 62.85%
- LVEF ([2]; 2 mg/kg (n = 5), Baseline, single animals and Mean ± SD): 54.41% and 70.41% and 57.45% and 57.90% and 62.76%
- E/Ea ([2]; 5 mg/kg (n = 6), 8 weeks): 7.38 and 9.25 and 8.22 and 6.12 and 11.07
- Ea ([2]; 5 mg/kg (n = 6), 8 weeks): 8.53 cm/s and 8.26 cm/s and 6.47 cm/s and 8.40 cm/s and 6.62 cm/s
- LVEF ([2]; 5 mg/kg (n = 6), 8 weeks): 62.99% and 45.89% and 73.88% and 54.16% and 55.90%
- LVEF ([2]; 5 mg/kg (n = 6), Baseline, single animals and Mean ± SD): 63.71% and 42.11% and 71.95% and 49.98% and 59.46%
- LVEF % compared with the baseline ([2]; 5 mg/kg, 8-week administration, 2 animals (No. 5073 and No. 287) with low ejection fraction): increased LVEF %
- adverse reaction in the systolic and diastolic function (echocardiography) ([2]; rhesus monkey, in vivo): no obvious adverse reaction
